Measurements published in patent publication US20220023269A1, “Methods Of Treating Diabetes In Severe Insulin-Resistant Diabetic Subjects” (Balticgruppen Bio AB, priority 2018, published 2022).

Tests used:
DIO mice = assay: Prevention of dysglycemia and insulin resistance in DIO B6 mice (oral gavage, 8 w); type: in vivo; conditions: 100 mg/kg/day each
Protocol: MATSUDA index was calculated via: […] […] All cell lines were lysed in 0.1 M Tris-HCl, pH 6.8, 2% SDS, 10 mM sodium fluoride (SIGMA #S7920), 10 mM β-glycerophosphate (SIGMA #G6376), and 1 mM sodium vanadate (SIGMA #72060) and supernatant collected after 1 minute at 14,000 rpm. Islets (human and mouse) were lysed in 0.1 M Tris-HCl, pH 6.8, 2% SDS, protease inhibitor (Roche #04 693 124 001) and phosphatase inhibitor (Roche #04 906 837 001). […] The supernatant was collected after 2 min at 14,000 rpm. This procedure was repeated until all fat was eliminated and the supernatant was clear, at 4° C. Samples were analysed on 4-15% polyacrylamide gels. Values were normalised toward AMPKα, β-Actin, GAPDH or the respective non-phosphorylated counterpart. For RNA purification calf muscle, iWAT, interscapular BAT, and left lateral liver lobe was crushed in a pestle using liquid nitrogen before turning to respective RNA kit. RNA from liver was prepared using Total RNA isolation Nucleospin II Kit (Macherey-Nagel #740955.50). RNA from adipose tissue was prepared using RNeasy Lipid Tissue Mini kit (Qiagen #74804). RNA from calf muscle tissue was prepared using RNeasy Fibrous Tissue Mini kit (Qiagen #74704). First strand cDNA synthesis was done using SuperScript III (First-Strand Synthesis SuperMix for qRT-PCR, Invitrogen #11752-250) according to the manufacturer's instructions. Total RNA was prepared from isolated islets using RNeasy Micro Kit (Qiagen #74004) and first strand cDNA synthesis was done using Superscript III (Invitrogen #18080-051) according to the manufacturer's instructions. Quantification of mRNA expression levels was performed essentially as previously described (Reference 3).

AMPK in HeLa cells = assay: AMPK activation assay in HeLa cells (LKB1 null); type: cell-based, human; conditions: LKB1 null cells; 2.5, 5 or 10 μM, 4 hours
Protocol: All cell lines were lysed in 0.1 M Tris-HCl, pH 6.8, 2% SDS, 10 mM sodium fluoride (SIGMA #S7920), 10 mM β-glycerophosphate (SIGMA #G6376), and 1 mM sodium vanadate (SIGMA #72060) and supernatant collected after 1 minute at 14,000 rpm. Islets (human and mouse) were lysed in 0.1 M Tris-HCl, pH 6.8, 2% SDS, protease inhibitor (Roche #04 693 124 001) and phosphatase inhibitor (Roche #04 906 837 001). Right calf muscle, heart, iWAT, and interscapular BAT was crushed in a pestle using liquid nitrogen and homogenised in ice cold RIPA buffer (150 mM sodium chloride (SIGMA #S7653), 1.0% NP40 (USB), 0.5% sodium deoxycholate (SIGMA #D6750), 0.1% SDS, 50 mM Tris pH 8.0, 20 mM sodium pyrophosphate (SIGMA #71515), 10 mM sodium fluoride, 10 mM β-glycerolphosphate, 1 mM sodium vanadate and protease inhibitor cocktail (Roche #04693124001), 1 tablet/10 ml lysis buffer). The supernatant was collected after 2 min at 14,000 rpm. This procedure was repeated until all fat was eliminated and the supernatant was clear, at 4° C. Samples were analysed on 4-15% polyacrylamide gels. Values were normalised toward AMPKα, β-Actin, GAPDH or the respective non-phosphorylated counterpart.
Table 3 contains origin of cell lines, growth conditions and settings for activation of AMPK via the test material. […]

CBA mice on HFD = assay: Echocardiography (LV function); type: in vivo; conditions: for heart rate: anesthetized
Protocol: Left ventricle structure and function were analysed with transthoracic, high-frequency echocardiography using the MS550D transducer. The examination was performed during light isoflurane anaesthesia (1.5-2.0% in 800 mL oxygen). Anaesthesia level was adjusted to keep the respiration rate at 80-110 breaths per minute. Left ventricular volumes were determined in B-mode using a Simpson's rule reconstruction. All images were analysed off-line in a blinded way using the Vevo LAB software 1.7.0. Stroke volume, cardiac output and heart rate were analysed, as well as wall thicknesses and left ventricle diameter. Three measurements/animal was performed for mean values.

[1] = test system: Wi-38 human lung fibroblast cells; assay: Determination of cellular ATP content; type: cell-based; conditions: 16 hours; dose-dependent
Protocol: Wi-38 human lung fibroblast cells were stimulated with test material for 16 hours. Thereafter ATP content were determined with the ATP bioluminescence assay kit HS II (Roche Applied Science #11699709001) according to manufacturer's recommendations. The ATP data were normalised to cellular protein determined using BCA protein assay kit (Pierce #23225).

[2] = test material-HFD 0.8 or 2 mg/g, 6 w

## O=C(Nc1nc(=O)n(Cc2ccc(Cl)cc2)s1)c1ccc(Cl)cc1 [test material, 4-chloro-N-[2-[(4-chlorophenyl)methyl]-3-oxo-1,2,4-thiadiazol-5-yl]benzamide]
DIO mice; oral gavage, 6 w
  HFD-provoked increase in fasted glucose: averted the HFD-provoked increase
  HFD-provoked increase in fasted plasma insulin: averted the HFD-provoked increase
DIO mice; oral gavage, vs vehicle
  insulin resistance (HOMA-IR): did not develop insulin resistance
DIO mice; 8 w
  Glut1 mRNA levels in calf muscle: increased Glut1 mRNA levels
  Txnip mRNA levels in calf muscle: reduced Txnip mRNA levels
  pAMPK in calf muscle: significantly increased pAMPK
AMPK in HeLa cells
  basal levels of pAMPK and pACC: failed to increase
CBA mice on HFD; 0.8 mg/g
  heart rate: normalized
CBA mice on HFD; 2 mg/g
  heart rate: reduced heart rate
CBA mice on HFD; test material-HFD 0.8 mg/g and 2 mg/g, 6 w
  increase in stroke volume compared with both RD and HFD: ~20%
CBA mice on HFD; [2]
  end-diastolic volume: normalized end-diastolic volume
  end-systolic volume: dose-dependently improved, but did not fully restore
[1]
  ATP/protein ratio: increased
